What was measured:
[1] = target: Histamine H2 receptor (Homo sapiens) (UniProt P25021); conditions: Compound concentration 10.0 uM
[2] = target: Adenosine receptor A2a (Homo sapiens) (UniProt P29274); assay: A2A/HU Eurofins-Panlabs selectivity data (BI); conditions: Compound concentration 10.0 uM
[3] = target: Beta-1 adrenergic receptor (Homo sapiens) (UniProt P08588); assay: BETA1/HU Eurofins-Panlabs selectivity data (BI); conditions: Compound concentration 10.0 uM
[4] = target: Cysteinyl leukotriene receptor 1 (Homo sapiens) (UniProt Q9Y271); assay: CYSLT1_HS Eurofins-Panlabs selectivity data (BI); conditions: Compound concentration 10.0 uM
[5] = target: Glucocorticoid receptor (Homo sapiens) (UniProt P04150); assay: GLUCOCORTICO Eurofins-Panlabs selectivity data (BI); conditions: Compound concentration 10.0 uM
[6] = target: Histamine H2 receptor (Homo sapiens) (UniProt P25021); assay: H2/H Eurofins-Panlabs selectivity data (BI); conditions: Compound concentration 10.0 uM
[7] = target: Sodium channel alpha subunit (site 2) (Homo sapiens, UniProt P35498+P35499+Q01118+Q14524+Q15858+Q99250+Q9NY46+Q9UI33+Q9UQD0+Q9Y5Y9); assay: NA+/SITE2ATG Eurofins-Panlabs selectivity data (BI); type: protein assay, Cavia porcellus; set-up: mode of action antagonist; conditions: guinea pig; compound concentration 30 uM; read-out: % Ctrl
[8] = target: Sodium-dependent noradrenaline transporter (Homo sapiens) (UniProt P23975); assay: NETRANS/H Eurofins-Panlabs selectivity data (BI); conditions: Compound concentration 10.0 uM
[9] = target: Sigma non-opioid intracellular receptor 1 (Homo sapiens) (UniProt Q99720); assay: SIGMA1/HU Eurofins-Panlabs selectivity data (BI); conditions: Compound concentration 10.0 uM
[10] = target: 5-hydroxytryptamine receptor 1E (Homo sapiens) (UniProt P28566); conditions: Compound concentration 10.0 uM
Chain of 5-hydroxytryptamine receptor 1E (Homo sapiens) (P28566 whole entry): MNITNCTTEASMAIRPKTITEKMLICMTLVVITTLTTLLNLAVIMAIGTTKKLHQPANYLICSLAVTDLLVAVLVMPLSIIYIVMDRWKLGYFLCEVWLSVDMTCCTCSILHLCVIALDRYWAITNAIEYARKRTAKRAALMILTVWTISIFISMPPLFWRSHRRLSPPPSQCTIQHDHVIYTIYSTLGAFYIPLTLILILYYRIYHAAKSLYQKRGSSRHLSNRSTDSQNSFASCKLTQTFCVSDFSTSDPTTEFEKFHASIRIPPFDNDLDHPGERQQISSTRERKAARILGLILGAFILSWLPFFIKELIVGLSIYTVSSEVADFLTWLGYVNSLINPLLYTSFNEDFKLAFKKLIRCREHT

Chain of Histamine H2 receptor (Homo sapiens) (P25021 whole entry): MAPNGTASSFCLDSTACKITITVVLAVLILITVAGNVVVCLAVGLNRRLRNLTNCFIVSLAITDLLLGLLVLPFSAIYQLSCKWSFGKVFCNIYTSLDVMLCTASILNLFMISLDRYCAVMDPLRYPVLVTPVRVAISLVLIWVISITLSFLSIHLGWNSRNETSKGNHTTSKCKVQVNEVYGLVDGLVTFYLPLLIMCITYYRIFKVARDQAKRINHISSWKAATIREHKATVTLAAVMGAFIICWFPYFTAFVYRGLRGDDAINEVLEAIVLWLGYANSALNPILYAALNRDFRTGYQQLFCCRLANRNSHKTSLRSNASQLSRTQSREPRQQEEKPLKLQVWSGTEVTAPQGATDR
Chain of Cysteinyl leukotriene receptor 1 (Homo sapiens) (Q9Y271 whole entry): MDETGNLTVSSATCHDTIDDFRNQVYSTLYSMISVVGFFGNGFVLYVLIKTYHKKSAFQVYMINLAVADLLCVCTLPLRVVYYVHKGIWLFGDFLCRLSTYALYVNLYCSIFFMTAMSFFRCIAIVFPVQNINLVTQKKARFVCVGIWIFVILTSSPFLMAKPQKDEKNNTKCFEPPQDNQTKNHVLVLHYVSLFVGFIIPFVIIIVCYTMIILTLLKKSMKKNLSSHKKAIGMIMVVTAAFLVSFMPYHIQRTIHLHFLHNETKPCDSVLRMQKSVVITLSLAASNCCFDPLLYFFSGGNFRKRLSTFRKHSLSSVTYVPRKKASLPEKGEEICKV
Chain of Sodium-dependent noradrenaline transporter (Homo sapiens) (P23975 whole entry): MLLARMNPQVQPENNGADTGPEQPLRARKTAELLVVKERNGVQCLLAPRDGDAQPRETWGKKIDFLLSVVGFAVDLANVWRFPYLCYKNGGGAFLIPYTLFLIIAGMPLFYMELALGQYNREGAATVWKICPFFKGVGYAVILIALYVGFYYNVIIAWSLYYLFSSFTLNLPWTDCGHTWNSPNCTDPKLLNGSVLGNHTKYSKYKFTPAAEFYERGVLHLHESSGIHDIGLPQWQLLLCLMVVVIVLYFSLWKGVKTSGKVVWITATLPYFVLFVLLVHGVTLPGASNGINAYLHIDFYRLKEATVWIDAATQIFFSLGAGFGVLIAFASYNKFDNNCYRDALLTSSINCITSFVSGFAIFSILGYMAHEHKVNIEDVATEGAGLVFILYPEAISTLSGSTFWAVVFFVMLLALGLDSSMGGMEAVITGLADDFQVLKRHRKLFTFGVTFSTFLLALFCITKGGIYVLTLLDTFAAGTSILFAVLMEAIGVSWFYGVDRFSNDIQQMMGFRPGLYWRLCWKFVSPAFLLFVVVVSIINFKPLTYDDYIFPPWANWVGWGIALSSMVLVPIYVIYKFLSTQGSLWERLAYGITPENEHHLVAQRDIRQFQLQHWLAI
Chain of Adenosine receptor A2a (Homo sapiens) (P29274 whole entry): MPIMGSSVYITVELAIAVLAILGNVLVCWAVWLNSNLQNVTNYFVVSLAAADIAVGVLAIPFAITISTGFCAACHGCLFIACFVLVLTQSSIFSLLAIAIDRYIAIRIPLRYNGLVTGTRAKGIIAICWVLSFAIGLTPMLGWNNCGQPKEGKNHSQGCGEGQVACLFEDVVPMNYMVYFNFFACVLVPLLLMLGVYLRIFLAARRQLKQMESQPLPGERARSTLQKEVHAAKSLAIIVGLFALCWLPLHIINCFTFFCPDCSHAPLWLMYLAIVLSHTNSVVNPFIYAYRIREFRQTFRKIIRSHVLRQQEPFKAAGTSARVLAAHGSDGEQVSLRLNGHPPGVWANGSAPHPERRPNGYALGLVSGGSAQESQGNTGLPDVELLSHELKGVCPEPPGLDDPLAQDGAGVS
Chain of Beta-1 adrenergic receptor (Homo sapiens) (P08588 whole entry, looked up): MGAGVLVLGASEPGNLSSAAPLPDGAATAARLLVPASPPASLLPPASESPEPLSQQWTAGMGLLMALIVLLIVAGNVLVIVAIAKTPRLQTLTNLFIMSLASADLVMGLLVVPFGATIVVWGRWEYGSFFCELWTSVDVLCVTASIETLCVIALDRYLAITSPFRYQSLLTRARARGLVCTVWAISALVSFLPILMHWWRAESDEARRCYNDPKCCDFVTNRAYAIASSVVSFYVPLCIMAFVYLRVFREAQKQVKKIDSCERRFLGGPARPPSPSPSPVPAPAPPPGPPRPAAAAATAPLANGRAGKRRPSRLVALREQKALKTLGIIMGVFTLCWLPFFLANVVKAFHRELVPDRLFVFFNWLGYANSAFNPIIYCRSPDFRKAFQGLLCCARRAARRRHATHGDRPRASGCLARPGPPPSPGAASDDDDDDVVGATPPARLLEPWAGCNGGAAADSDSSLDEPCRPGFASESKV
Chain of Glucocorticoid receptor (Homo sapiens) (P04150 whole entry): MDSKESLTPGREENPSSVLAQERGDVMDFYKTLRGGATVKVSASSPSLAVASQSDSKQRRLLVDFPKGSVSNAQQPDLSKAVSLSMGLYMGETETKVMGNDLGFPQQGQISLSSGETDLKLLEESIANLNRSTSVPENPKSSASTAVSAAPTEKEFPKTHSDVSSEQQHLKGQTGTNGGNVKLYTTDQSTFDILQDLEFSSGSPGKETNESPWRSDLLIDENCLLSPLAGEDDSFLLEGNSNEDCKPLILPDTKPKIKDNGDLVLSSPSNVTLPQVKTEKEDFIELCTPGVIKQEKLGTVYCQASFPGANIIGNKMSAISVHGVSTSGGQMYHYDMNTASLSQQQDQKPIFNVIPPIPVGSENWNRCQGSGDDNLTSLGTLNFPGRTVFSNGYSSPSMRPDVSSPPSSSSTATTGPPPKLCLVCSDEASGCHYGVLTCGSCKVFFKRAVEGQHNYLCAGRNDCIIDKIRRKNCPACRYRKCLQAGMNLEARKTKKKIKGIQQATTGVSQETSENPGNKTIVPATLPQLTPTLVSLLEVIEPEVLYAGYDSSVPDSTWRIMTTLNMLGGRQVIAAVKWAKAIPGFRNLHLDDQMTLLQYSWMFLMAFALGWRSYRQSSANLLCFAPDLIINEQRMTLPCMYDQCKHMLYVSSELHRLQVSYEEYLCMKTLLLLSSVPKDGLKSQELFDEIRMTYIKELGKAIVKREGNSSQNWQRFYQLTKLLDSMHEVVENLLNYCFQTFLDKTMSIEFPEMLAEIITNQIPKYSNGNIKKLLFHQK
Chain of Sigma non-opioid intracellular receptor 1 (Homo sapiens) (Q99720 whole entry): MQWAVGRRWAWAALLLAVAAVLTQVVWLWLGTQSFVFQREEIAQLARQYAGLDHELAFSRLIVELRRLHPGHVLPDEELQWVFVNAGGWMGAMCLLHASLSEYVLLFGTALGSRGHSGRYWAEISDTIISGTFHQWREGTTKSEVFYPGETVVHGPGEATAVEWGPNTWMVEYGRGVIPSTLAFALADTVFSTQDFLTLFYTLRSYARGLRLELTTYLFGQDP

Row | Compound | inhibition [1] | residual activity [2] | residual activity [3] | residual activity [4] | residual activity [5] | residual activity [6] | activity at 30 µM [7] | residual activity [8] | residual activity [9] | inhibition [10]
1 | CC(=O)N1CCC(c2ccc(C(=O)NC3=NCCN3)cc2C(F)(F)F)CC1 [BI 0054] | -9.37% |  |  |  |  |  |  |  |  | 
2 | CC(=O)N1CCC(c2ccc(C(=O)NC(=N)N)cc2C(F)(F)F)CC1 [BI 9627] |  | 86% | 102% | 95% | 98% | 103% | 100% (not active) | 91% | 114% | -9.59%

From ChEMBL document CHEMBL4507279, “Data for DCP probe BI-9627” (2021)
